Structures can show the parent of a compound that is named as a salt.

For the assay, the target named is T1, human EP3 receptor (Homo sapiens, UniProt P43115).
T1 construct: expressed in transfected cells; host or cells: CHO K1 (Chinese Hamster Ovary), stably co-transfected with Galpha16 and mitochondrial clytin
T1 sequence (P43115 1-390): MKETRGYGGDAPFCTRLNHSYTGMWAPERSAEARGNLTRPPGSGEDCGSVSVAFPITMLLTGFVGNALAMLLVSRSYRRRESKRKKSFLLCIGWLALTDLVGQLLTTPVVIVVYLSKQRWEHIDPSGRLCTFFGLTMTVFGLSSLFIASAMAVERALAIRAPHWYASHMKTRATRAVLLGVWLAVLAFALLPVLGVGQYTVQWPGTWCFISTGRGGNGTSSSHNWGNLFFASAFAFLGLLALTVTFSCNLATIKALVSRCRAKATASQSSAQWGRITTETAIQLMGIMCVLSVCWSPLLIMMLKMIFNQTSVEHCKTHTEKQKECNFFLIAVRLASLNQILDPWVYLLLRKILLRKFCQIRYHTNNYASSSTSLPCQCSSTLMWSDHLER
The assay can be described thus: Cellular in vitro assay for determining EP3 receptor activity (human EP3 cell line, sulprostone-stimulated calcium luminescence). In kind it is cell-based. The following applies: CHO cells expressing human EP3 and mitochondrial Clytin; antagonist mode, sulprostone at EC50; read-out: EP3 CHO mtCLY ANTAG IC50. The essentials: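 Antagonist activity was measured as inhibition of the luminescent calcium signal elicited by EC50 sulprostone, following 10 min compound pretreatment. The cell line was recombinant CHO K1 co-expressing human EP3, Gα16 and the photoprotein Clytin, reconstituted with coelenterazine.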
Usually IC50 stands for the concentration needed to halve the response being measured. For `Cc1ccc(-c2cn3nc(C(=O)N[C@@H](c4ccc(F)cc4)C(C)(C)O)c(C4CC4)c3c(=O)[nH]2)cc1C` [6-440], the IC50 was 1.05 nM.
For the molecule `O=C(N[C@@H](c1ccc(F)cc1)C(F)(F)CO)c1nn2cc(-c3cc(F)c(Cl)c(F)c3)[nH]c(=O)c2c1C1CC1` [6-474], the half-maximal inhibitory concentration (IC50) worked out at 1.63 nM.
The same measure for `CCC(CNC(=O)c1cc2c(=O)[nH]c(-c3ccc4ccccc4c3)cn2n1)n1cc(Cl)cn1` (stereo not drawn) [Example 2-10, N-[2-(4-Chlor-1H-pyrazol-1-yl)butyl]-6-(2-naphthyl)-4-oxo-4,5-dihydropyrazolo[1,5-a]pyrazine-2-carboxamide]: 1.7 nM; for `Cc1ccc(-c2cn3nc(C(=O)NC(CN4CCOCC4)c4ccc(F)cc4)c(C4CC4)c3c(=O)[nH]2)cc1C` (racemic) [6-441]: 1.45 nM; for `Cc1c(C(=O)Nc2ccnn2C(C)C)nn2c(C)c(-c3ccc4ccccc4c3)[nH]c(=O)c12` [Example 3-6, 3,7-Dimethyl-6-(naphthalen-2-yl)-4-oxo-N-[1-(propan-2-yl)-1H-pyrazol-5-yl]-4,5-dihydropyrazolo[1,5-a]pyrazine-2-carboxamide]: 4.75 nM.
The result for `CC(C)C(NC(=O)c1nn2cc(-c3ccc4ccccc4c3)[nH]c(=O)c2c1C#N)c1ccc(F)cc1` (stereo not drawn) [Example 3-59, 3-Cyano-N-[1-(4-fluorophenyl)-2-methylpropyl]-6-(2-naphthyl)-4-oxo-5H-pyrazolo[1,5-a]pyrazine-2-carboxamide] reads 1.25 nM; that for `Cc1ccc(-c2cn3nc(C(=O)NC(C)C(O)C(F)(F)F)cc3c(=O)[nH]2)cc1C` (stereo not drawn) [6-355], 5.8 nM; that for `Cc1ccc(-c2cn3nc(C(=O)N[C@@H](C)CO)c(C4CCC4)c3c(=O)[nH]2)cc1F` [6-576], 3.75 nM.
The same measure for `COc1ccc(C(CCO)NC(=O)c2cc3c(=O)[nH]c(-c4ccc5ccccc5c4)cn3n2)cc1` (stereo not drawn) [Example 2-2, N-[3-Hydroxy-1-(4-methoxyphenyl)propyl]-6-(2-naphthyl)-4-oxo-4,5-dihydropyrazolo[1,5-a]pyrazine-2-carboxamide]: 1.18 nM.
Consider `Cc1cc(-c2cn3nc(C(=O)N[C@@H](c4ccc(F)cc4)C(C)(C)O)c(C(F)(F)F)c3c(=O)[nH]2)ccc1Cl` [Example 1-166, 6-(4-Chloro-3-methylphenyl)-N-[(1S)-1-(4-fluorophenyl)-2-hydroxy-2-methylpropyl]-4-oxo-3-(trifluoromethyl)-4,5-dihydropyrazolo[1,5-a]pyrazine-2-carboxamide], for which the 50% inhibitory concentration (IC50) came to 3.15 nM.
For the molecule `Cc1ccc(-c2cn3nc(C(=O)N[C@@H](c4ccc(F)cc4)C(C)(C)O)c(C4CCC4)c3c(=O)[nH]2)cc1F` [6-573], the IC50 came out at 1.25 nM.
The same measure for `O=C(NC(CO)c1ccc(F)cc1)c1cc2c(=O)[nH]c(-c3ccc4ccccc4c3)cn2n1` (stereo not drawn) [Example 1-61, N-[1-(4-Fluorophenyl)-2-hydroxyethyl]-6-(2-naphthyl)-4-oxo-5H-pyrazolo[1 ,5-a]pyrazine-2-carboxamide]: 4.2 nM; for `CCN1CCC(NC(=O)c2nn3cc(-c4ccc(C)c(F)c4)[nH]c(=O)c3c2C2CC2)(C(F)(F)F)C1` (single isomer, unassigned) [6-405]: 4.7 nM.
The result for `COCc1c(C(=O)N[C@H](C)c2ccc(OC)nc2)nn2cc(-c3ccc4ccccc4c3)[nH]c(=O)c12` [Example 1-22, 3-(Methoxymethyl)-N-[(1R)-1-(6-methoxypyridin-3-yl)ethyl]-6-(naphthalen-2-yl)-4-oxo-4,5-dihydropyrazolo[1,5-a]pyrazine-2-carboxamide] reads 0.37 nM; that for `O=C(Nc1cccc2ncccc12)c1cc2c(=O)[nH]c(-c3ccc4ccccc4c3)cn2n1` [Example 2-45, N-(Chinolin-5-yl)-6-(2-naphthyl)-4-oxo-4,5-dihydropyrazolo[1,5-a]pyrazine-2-carboxamide], 6.05 nM.
`Cc1c(C(=O)NC(c2ccc(F)cc2)C(C)C)nn2c(C)c(-c3ccc4ccccc4c3)[nH]c(=O)c12` (stereo not drawn) [Example 3-41, N-[1-(4-Fluorophenyl)-2-methylpropyl]-3,7-dimethyl-6-(2-naphthyl)-4-oxo-5H-pyrazolo[1,5-a]pyrazine-2-carboxamide]: the half-inhibitory concentration (IC50) came out at 3.95 nM.
The same measure for `COc1ccc2c(c1)OC(C)(C)CC2NC(=O)c1nn2cc(-c3cnc4cccc(C)c4c3)[nH]c(=O)c2c1C(C)C` (stereo not drawn) [Example 4-79, 3-Isopropyl-N-(7-methoxy-2,2-dimethyl-3,4-dihydro-2-chromen-4-yl)-6-(5-methylquinolin-3-yl)-4-oxo-4,5-dihydropyrazolo[1,5-a]pyrazine-2-carboxamide]: 7.6 nM; for `COc1ccc(CCNC(=O)c2nn3cc(-c4ccc5ccccc5c4)[nH]c(=O)c3c2C(C)C)cc1OC` [6-85]: 0.887 nM; for `COc1ccc(C(C)NC(=O)c2cc3c(=O)[nH]c(-c4ccc5ccccc5n4)cn3n2)cn1` (stereo not drawn) [Example 1-106, N-[1-(6-Methoxypyridin-3-yl)ethyl]-4-oxo-6-(quinolin-2-yl)-4,5-dihydropyrazolo[1,5-a]pyrazine-2-carboxamide]: 5.65 nM.
The same measure for `Cc1c(C(=O)NC(C)(C)c2cc(Cl)cc(Cl)c2)nn2c(C)c(-c3ccc4ccccc4c3)[nH]c(=O)c12` [Example 3-30, N-[2-(3,5-Dichlorophenyl)propan-2-yl]-3,7-dimethyl-6-(naphthalen-2-yl)-4-oxo-4,5-dihydropyrazolo[1,5-a]pyrazine-2-carboxamide]: 9.4 nM; for `Cc1cccc2ncc(-c3cn4nc(C(=O)Nc5cnn(C)c5)c(C(C)C)c4c(=O)[nH]3)cc12` [Example 4-24, N-(1-Methyl-1H-pyrazol-4-yl)-6-(5-methylquinolin-3-yl)-4-oxo-3-(propan-2-yl)-4,5-dihydropyrazolo[1,5-a]pyrazine-2-carboxamide]: 1.15 nM; for `CCCN1CC(NC(=O)c2nn3cc(-c4ccc5ccccc5c4)[nH]c(=O)c3c2C(F)(F)F)(c2ccc(F)cc2)C1` [Example 1-127, N-[3-(4-Fluorophenyl)-1-propylazetidin-3-yl]-6-(naphthalen-2-yl)-4-oxo-3-(trifluoromethyl)-4,5-dihydropyrazolo[1,5-a]pyrazine-2-carboxamide]: 2.15 nM.
The same measure for `CC(C)(O)[C@@H](NC(=O)c1nn2cc(-c3ccc(C(F)(F)F)c(F)c3)[nH]c(=O)c2c1C1CC1)c1ccc(F)cc1` [6-588]: 5.6 nM.
`Cc1ccc(-c2cn3nc(C(=O)NC4CC(F)(F)C4)c(C4CC4)c3c(=O)[nH]2)cc1Cl` [6-255]: the half-inhibitory concentration (IC50) turned out to be 0.95 nM.
On to `Cc1cc(-c2cn3nc(C(=O)N[C@@H](c4ccc(F)cc4)C(F)(F)CO)c(C(F)(F)F)c3c(=O)[nH]2)ccc1F` [6-647], for which the IC50 stood at 3.03 nM.
Regarding `O=C(NC(CO)C(F)(F)F)c1nn2cc(-c3ccc(Cl)c(F)c3)[nH]c(=O)c2c1C1CC1` (single isomer, unassigned) [6-94], the 50% inhibitory concentration (IC50) was found to be 5.8 nM.
The result for `O=C(NC(CO)c1ccc(F)cc1)c1cc2c(=O)[nH]c(-c3ccc4cccc(F)c4c3)cn2n1` (stereo not drawn) [6-37] reads 1.31 nM.
The same measure for `Cc1ccc(-c2cn3nc(C(=O)N[C@H](CCO)c4ccc(F)cc4)c(C)c3c(=O)[nH]2)cc1F` [6-408]: 1.03 nM; for `Cc1ccc(-c2cn3nc(C(=O)N[C@@H](C)C(C)(C)C)c(C4CC4)c3c(=O)[nH]2)cc1Cl` [6-253]: 4.75 nM; for `Cc1ccc([C@@H](C)NC(=O)c2nn3cc(-c4ccc5ccccc5c4)[nH]c(=O)c3c2C#N)cc1` [Example 3-53, 3-Cyano-N-[(7R)-1-(4-methylphenyl)ethyl]-6-(naphthalen-2-yl)-4-oxo-4,5-dihydropyrazolo[1,5-a]pyrazine-2-carboxamide]: 1.45 nM.
The result for `O=C(NC(c1cccc(F)c1)C(F)F)c1cc2c(=O)[nH]c(-c3ccc4ccccc4c3)cn2n1` (stereo not drawn) [Example 2-13, N-[2,2-Difluoro-1-(3-fluorophenyl)ethyl]-6-(2-naphthyl)-4-oxo-4,5-dihydropyrazolo[1,5-a]pyrazine-2-carboxamide] reads 1.3 nM; that for `CC(C)(O)[C@@H](NC(=O)c1nn2cc(-c3ccc(Cl)c(F)c3)[nH]c(=O)c2c1C1CC1)c1ccc(F)cc1` [Example 1-167, 6-(4-Chloro-3-fluorophenyl)-3-cyclopropyl-N-[(15)-1-(4-fluorophenyl)-2-hydroxy-2-methylpropyl]-4-oxo-4,5-dihydropyrazolo[1,5-a]pyrazine-2-carboxamide], 2.2 nM; that for `Cc1cccc2ncc(-c3cn4nc(C(=O)NCC(N)=O)c(C(C)C)c4c(=O)[nH]3)cc12` [Example 4-31, N-(2-Amino-2-oxoethyl)-6-(5-methylquinolin-3-yl)-4-oxo-3-(propan-2-yl)-4,5-dihydropyrazolo[1,5-a]pyrazine-2-carboxamide], 7.4 nM.
Regarding `Cc1ccc(-c2cn3nc(C(=O)NC(CO)c4ccc(F)cc4)c(C(F)(F)F)c3c(=O)[nH]2)cc1Cl` (single isomer, unassigned) [6-156], the IC50 is 1.3 nM.
The same measure for `O=C(NC1(c2ccc(F)cc2)CNC1)c1nn2cc(-c3ccc4ccccc4c3)[nH]c(=O)c2c1C(F)(F)F` [Example 1-125, N-[3-(4-Fluorophenyflazetidin-3-yl]-6-(naphthalen-2-yl)-4-oxo-3-(trifluoromethyl)-4,5-dihydropyrazolo[1,5-a]pyrazine-2-carboxamide hydrochloride]: 3.35 nM.
In the case of `C[C@@H](CO)NC(=O)c1nn2cc(-c3ccc(Cl)c(Cl)c3)[nH]c(=O)c2c1C1CC1` [6-414], the IC50 came to 5.55 nM.
